Data: US20250325663A1, “MEDICAMENT FOR TREATMENT AND/OR PREVENTION OF CANCER” (TORAY INDUSTRIES, INC., priority 2021, published 2025)

System: colon cancer cell line HCT116
Assay: Proliferation rate of HCT116 in culture with drug
Format: cell-based, human
Conditions: cultured for 2 days
Procedure: The human-derived cancer cells used were a colon cancer cell line HCT116, a melanoma cell line A375 (used only in the tunicamycin combination test group), a lung cancer cell line A549 (used only in the tunicamycin combination test group), and a prostate cancer cell line DU145 (used only in the tunicamycin combination test group). On a 6-well plate, the human-derived cancer cells were cultured for 1 day in the presence of tunicamycin for the tunicamycin combination test group, and cultured for 2 days in the presence of the relevant drug used in combination for the fluorouracil combination test group and the irinotecan combination test group. The concentration of the drug used in combination was set to a concentration that decreased the proliferation rate of the cancer cells by about half at the completion of culture. […] As a control, a test group without a drug used in combination was established. In the control group, only DMSO (dimethyl sulfoxide), a solvent for the drug used in combination, was added to the cancer cells at a final concentration of 0.1% (v/v), and then the cancer cells were cultured for 2 days.

O=c1[nH]cc(F)c(=O)[nH]1 [fluorouracil]
concentration that decreased the proliferation rate of the cancer cells by about half at the completion of culture: 0.4 µg/mL
